Reference: PubChem BioAssay AID624491 (Broad Institute, 2012)

Each compound was assayed on D54 ERlucT glycosylation luciferase reporter, luminescence, 24 h (assay: N-linked glycosylation inhibitors, luciferase reporter, dose response, D54 ERlucT cells, luminescence, cherry-picks (AID 624491);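 also: signal gain reflects blocked N-linked glycosylation of a luciferase reporter; actives raise luciferase signal so AC26 marks activators of the reporter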).

Structure (SMILES)	AC26
Cc1cc(=O)n2c3c(c4c(cc13)c(CN(C)C)cc(=O)n4C)OC2	3030 nM
Cn1nc(-c2ccccc2)c(CSc2ccccc2Cl)c1Cl	6120 nM
Cc1ccc2oc(C(=O)NCc3ncc(C)[nH]3)c(C)c2c1	6750 nM
Cc1cc(C)c(NC(=O)CSc2nc(COc3ccccc3)nc3ccccc23)c(C)c1	5220 nM
CC(Nc1nc(-c2ccccc2O)nc2ccccc12)c1ccccc1 (configuration not stated)	65.6 nM
Cn1c(=O)n(C)c2cc(C(=O)Nc3ccc4c(c3)OCO4)ccc21	1740 nM
COc1ccc(OC)c(-c2nnc3n2N=C(c2ccc(OC)c(OC)c2)CS3)c1	4160 nM
C=CCn1c(SCC(=O)c2[nH]c(C)c(C(=O)OC)c2C)nc2scc(-c3ccc(OC)c(OC)c3)c2c1=O	703 nM
COc1ccc(C2C(C(=O)Nc3cc(OC)c(OC)c(OC)c3)c3ccccc3C(=O)N2C)cc1 (configuration not stated)	5180 nM
COc1ccc(N2CCc3c(C)nc4c(OC)cccc4c32)cc1	368 nM
COc1cc(-c2cc3nc(NCCOc4ccccc4)ccn3n2)cc(OC)c1OC	2350 nM
CCOc1ccc(Cl)cc1C1=CC(=O)C[C@H](c2ccc(OC)cc2)C1	472 nM
COc1ccc(S(=O)Cc2ccc(C(=O)N3CCN(c4cccc(C)c4C)CC3)o2)cc1 (configuration not stated)	1430 nM
COc1cc(C(=O)OCCCN2CCCN(CCCOC(=O)c3cc(OC)c(OC)c(OC)c3)CC2)cc(OC)c1OC	1550 nM
Cc1[nH]nc2c1C(c1ccc(-c3ccc(Cl)cc3)o1)C(C#N)=C(N)O2 (configuration not stated)	1140 nM
Cc1ccccc1NS(=O)(=O)c1ccc2c3c(cccc13)C(=O)N2C	3400 nM
Cc1cccc(C(=O)Nc2cc(S(=O)(=O)N3CCOCC3)ccc2N2CCCC2)c1	173 nM
CS(=O)(=O)c1cccc(C(=O)Nc2ccc(-c3nc4ccccc4[nH]3)cc2)c1	3070 nM
COc1ccc(OC(=O)N2C/C(=C/c3ccccc3)C(=O)/C(=C\c3ccccc3)C2)cc1	299 nM
COc1ccc(C(=O)NCCN(C)C)c2nc3ccccc3cc12	128 nM
O=C(/C(=C\c1ccccc1)c1nc2ccccc2[nH]1)c1ccc(Cl)cc1	1000 nM
Cc1ccc(Nc2nc(-c3sc(C)nc3C)cs2)cc1	481 nM

Structure (SMILES)	AC26
O=C(c1ccc2ncsc2c1)N1CCN(c2cccc(C(F)(F)F)c2)CC1	4190 nM
CCOC(=O)c1c(C)c(C(=O)Nc2cc(F)ccc2F)c(C)n1C	12600 nM
O=C(Nc1ccc(S(=O)(=O)N2CCOCC2)cc1)c1cc(-c2cc(Cl)ccc2O)n[nH]1	1260 nM
COc1cccc(C(=O)Nc2ccc(N3CCN(C(=O)c4ccco4)CC3)cc2)c1	10700 nM
CCc1ccc2nc3nc(C)cc(C)c3c(N)c2c1	2810 nM
C[C@@H]1[C@@H](Sc2ccccc2)CC(=O)O[C@@H]1c1ccc(-c2ccccc2)cc1	920 nM
COc1ccc(-c2cnc3c(NC=O)cc(-c4ccccc4)cn23)cc1OC	97.1 nM
Oc1ccc(-c2csc(-c3c[nH]c4ccccc34)n2)c(O)c1	3410 nM
CCN(CC)CCCNc1ccc2ncn3c4ccc(O)cc4c(=O)c1c23	92.6 nM
CCCNS(=O)(=O)c1cccc(C(=O)OCc2cc(=O)oc3cc(OC)ccc23)c1	834 nM
O=S(=O)([N-]c1nc2ccccc2nc1-n1cc[n+](Cc2ccccc2)c1)c1ccccc1	520 nM
Cc1cc([N+](=O)[O-])ccc1Nc1nc2ccccc2n2cnnc12	8280 nM
COc1ccccc1NC1=NC(c2ccc(Cl)cc2)N=C(N)N1 (configuration not stated)	1370 nM
CN(C)CCN1C(=O)c2cccc3cc([N+](=O)[O-])cc(c23)C1=O	73.5 nM
Cc1cc(-c2nnc3n2N=C(c2ccc(-c4ccccc4)cc2)CS3)n[nH]1	2760 nM
CN(C)CCOc1nc(-c2ccccc2)nc2c1oc1ccccc12	2700 nM
CCN(CC)S(=O)(=O)c1cccc(NC(=O)CN2C(=O)NC3(CCC(C)CC3)C2=O)c1 (configuration not stated)	876 nM
COc1ccc(C=CC(=O)c2ccc(OC)c(OC)c2O)cc1OC	4390 nM
Cc1ccnc(NC(=O)CCCOc2cc(=O)n(C)c3ccccc23)c1	14900 nM
C[C@H](CO)N1C[C@H](C)[C@@H](CN(C)S(=O)(=O)c2cccs2)Oc2c(NC(=O)Cc3ccccc3)cccc2C1=O	2250 nM
CCCC(=O)Nc1nc2ccc(NC(=O)c3c(F)c(F)c(OC)c(F)c3F)cc2s1	974 nM
CCOc1cc(/C=C/C(=O)c2ccc3c(c2)OCCO3)ccc1OCC(=O)N(C)C	3700 nM

Structure (SMILES)	AC26
Nc1nc(CN2CCN(Cc3ccccc3)CC2)nc(Nc2ccc3c(c2)OCCO3)n1	699 nM
Cc1cc(Sc2ccc([N+](=O)[O-])cn2)ccc1Br	6940 nM
COc1ccc(-c2nc(C(N)=O)c3[nH]c(=O)n(-c4cccc(Cl)c4)c3n2)cc1OC	5880 nM
COc1ccc(C(=O)/C=C/c2ccc(N(C)C)cc2)c(OC)c1	11700 nM
COc1ccccc1N1CC(O)=C(c2nc3ccccc3c(=O)[nH]2)C1=N	1320 nM
COc1ccc(C(C)(O)c2nc(-c3ccc(F)cc3OC)cs2)cc1 (configuration not stated)	5930 nM
COc1cccc(C(N)c2nc(-c3csc4ccccc34)cs2)c1 (configuration not stated)	3590 nM
Cn1c(=O)[nH]c(=O)c2c1nc(N/N=C/c1cccnc1)n2Cc1ccc(Cl)cc1	1630 nM
COc1ccc(C(=O)c2cc(OC)c(OC)c(OC)c2)cc1OC	1250 nM
CCOC(=O)c1c(NC(=O)CN2C(=O)NC3(CCCCC3C)C2=O)sc(C)c1CC (configuration not stated)	6750 nM
COc1ccccc1N1CCN(C(=O)c2oc3ccccc3c2C)CC1	8000 nM
CC(=O)c1cccc(-c2ccnc3c2CC(C(=O)Nc2ccc4c(c2)OCO4)O3)c1 (configuration not stated)	2430 nM
CCN(CC)CCn1c2ccccc2c2nc3ccccc3nc21	1950 nM
CCOc1ccc2c(c1)OC(c1ccc(OC)cc1)(C(F)(F)F)NC2=O (configuration not stated)	1610 nM
FC(F)(F)c1cccc(Sc2nc(-c3ccccc3)nnc2C(F)(F)F)c1	2340 nM
Cc1nc([N+](=O)[O-])c(Sc2nc3ccccc3[nH]2)n1Cc1ccccc1	8510 nM
COc1cc(/C=C/C(=O)OCC(=O)NCc2ccc(F)cc2)ccc1O	1590 nM
COc1ccc(NCC(=O)n2c(C)c(C)c3ccccc32)cc1	3640 nM
COc1cc(Nc2c3c(nc4ccccc24)CCCC3)cc(OC)c1OC	581 nM
O=C(CSc1c2c(nc3ccc(Cl)cc13)CCCC2)N1CCN(C(=O)c2ccco2)CC1	7690 nM
COc1ccc(NC(=O)c2oc3ccccc3c2NC(=O)c2ccco2)cc1	11700 nM
COc1ccc(NC(=O)C2(C)Cc3c(-c4cccc(NC(C)=O)c4)ccnc3O2)cn1 (configuration not stated)	10100 nM

Structure (SMILES)	AC26
COc1cc(/C=N\NC(=O)c2sc(N)nc2C)cc(OC)c1OC	3140 nM
CCc1ccc(OCC(=O)Nc2ccc(-c3cc4ccccc4oc3=O)c(OC)c2)cc1	3090 nM
Nc1nonc1C(=O)N/N=C/c1ccc([N+](=O)[O-])o1	6160 nM
CC(C)CC(NC(=O)c1ccc(Cl)cc1)C(=O)OCC(=O)c1ccc2c(c1)NC(=O)CO2 (configuration not stated)	4090 nM
COc1ccc2nc(C)cc(Nc3ccc(N4CCOCC4)cc3)c2c1	1260 nM
CC(=O)c1cccc(NC(=O)CSc2ncc(C(=O)Nc3ccccc3)c(=O)n2C)c1	1350 nM
CC1(C(=O)NCc2ccc(F)c(F)c2)Cc2c(-c3ccc4c(c3)OCO4)ccnc2O1 (configuration not stated)	6730 nM
COc1ccc2[nH]c(C(=O)N/N=C/c3ccccc3OC)cc2c1	1010 nM
COc1cc(NC(=O)c2ccccc2F)ccc1NC(=O)c1cc2ccccc2o1	2390 nM
COc1ccc(Nc2nc3cc(-c4sccc4C)sc3c(=O)n2C)cc1OC	477 nM
CN1C(=O)CSc2ccc(NC(=O)Nc3ccccn3)cc21	4260 nM
Cn1nc(-c2ccc(N3CCOCC3)c(NS(=O)(=O)c3ccccc3)c2)c2ccccc2c1=O	6110 nM
COc1ccc(S(=O)(=O)N2N=C(C)Oc3ccccc3C2=O)cc1	1250 nM
CCn1ncc(C2=NOC(C(=O)NCc3ccccc3)C2)c1C (configuration not stated)	413 nM
CN(C1=C(NC(=O)c2ccc(Cl)cc2)C(=O)c2ccccc2C1=O)c1ccccc1	3410 nM
CC1CN(C(=O)c2ccc(COc3ccc(C(C)C)cc3)o2)CC(C)O1 (configuration not stated)	3780 nM
Cc1ccc(Sc2c(CO)c(-c3ccccc3)nn2C)cc1	341 nM
COc1ccc2cc(CN(CC3CCCO3)C(=O)Nc3ccccc3OC)c(=O)[nH]c2c1 (configuration not stated)	4020 nM
CC1(C(=O)NCc2ccco2)Cc2c(-c3cccc(C(N)=O)c3)ccnc2O1 (configuration not stated)	1450 nM
C=C1c2nc3ccccc3n2C=C(c2ccc(C)cc2)N1c1ccccc1	9580 nM
COc1ccc(/C=C2\CC/C(=C\c3ccc(OC)c(OC)c3)C2=O)cc1OC	3790 nM
COc1cc(/C=C/c2onc(C)c2[N+](=O)[O-])cc(OC)c1OC	864 nM

Structure (SMILES)	AC26
N#Cc1c(N)n(CCc2ccc(F)cc2)c2nc3ccccc3nc12	1590 nM
COc1ccc(C(=O)/C=C/c2ccc(OC(=O)c3cc(OC)c(OC)c(OC)c3)cc2)cc1	3740 nM
CC(NC(=O)c1ccc2ccccc2n1)c1ccc(S(N)(=O)=O)cc1 (configuration not stated)	4020 nM
CCC(=NCCc1c(C)[nH]c2ccc(OC(F)(F)F)cc12)C1=C(O)CC(c2ccccc2)CC1=O (configuration not stated)	817 nM
COc1cc(C2c3cc4c(cc3OC(Nc3ccc(C(=O)O)cc3)C2C)OCO4)cc(OC)c1OC (configuration not stated)	10700 nM
COc1cc(C(=O)N/N=C(\C)c2ccc3c(c2)OCO3)cc(OC)c1OC	1260 nM
Cc1ccc(S(=O)(=O)N(C)C[C@H]2Oc3ccc(NC(=O)C4CCCCC4)cc3C(=O)N([C@H](C)CO)C[C@H]2C)cc1	1140 nM
COc1ccc2c(c1)C(=O)N1[C@H]3c4cc(Br)ccc4OC[C@@H]3[C@H](c3ccccc3)[C@]1(C)C(=O)N2	851 nM
Nc1c2ccccc2nc2ccccc12	364 nM
Cc1ccc2nsnc2c1NC(=O)c1ccc(-c2cc(Cl)ccc2Cl)o1	846 nM
CC1=CC(C)[C@H](/C=N/n2c(=O)[nH]c3c([nH]c4ccc(Br)cc43)c2=O)C(C)C1 (some centres not stated)	3780 nM
CC(C)(C)S(=O)(=O)N1C[C@H]2CC/C=C\C/C(c3ccccc3)=C\2[C@@H]1CCO	1030 nM
COC(=O)c1[nH]c2cc(OC)c(OC)cc2c1/C=N/Nc1ccccc1	6360 nM
CSc1nnc(-c2sccc2OCc2ccccc2)n1C	1950 nM
COC(=O)c1cn(C(=O)c2cccc3ccccc23)c2ccccc12	928 nM
Cc1nnc2c3ccccc3c(-c3ccccc3)nn12	2870 nM
COc1ccc(-n2c(C)cc(C(=O)CCl)c2C)cc1	3980 nM
O=C(C=Cc1cccc(O)c1)c1ccccc1O	3290 nM
COc1ccc(NC(=O)C2Cc3c(-c4cccc(C(C)=O)c4)ccnc3O2)cn1 (configuration not stated)	203 nM
